Some test systems named below: A498; COLO 205; DU-145; HCC 2998; Hs-578T; MOLT-4; NCI-H226; NCI-H23; OVCAR-4; OVCAR-8; PC-3; SK-MEL-28; SK-MEL-5; SNB-19; SNB-75; U-251; UO-31; HOP-62; SF-295; HOP-92.
Test in all cases: NCI anticancer screen, dose series, 48 h

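Growth conditions: 96-well plates. Treatment: test compound, 48 hours, 5 concentrations. Analysis: linear interpolation between bracketing concentrations; unreached endpoints set to highest concentration. Abbreviation: GI50, concentration required for 50% inhibition of growth.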 Active and inactive are the calls of the source. No stated cut-off is given here; in the data, active = GI50 up to about 1.1 µM and inactive = higher.

The values that follow come from ChEMBL document CHEMBL1201862, “PubChem BioAssay data set” (2004).

Take `COC(=O)N/N=C(\c1ccccc1)c1ccc(OC)cc1`: the GI50 in the assay with A498, in the assay on COLO 205, with DU-145, in the assay with HCC 2998, in the assay on Hs-578T and in the assay on MOLT-4 was > 100 µM (inactive) each time. In addition, the GI50 with NCI-H226, with NCI-H23, with OVCAR-4, in the assay with OVCAR-8, with PC-3 and with SK-MEL-28 was > 100 µM (inactive) in each case. Also, the GI50 with SK-MEL-5 was > 100 µM (inactive); in the assay on SNB-19, > 100 µM (inactive); with SNB-75, 78.7 µM (inactive); in the assay on U-251, > 100 µM (inactive); in the assay on UO-31, 35.1 µM (inactive).

`CC(=O)O/N=C1\C=Cc2c(no[n+]2[O-])C1=O`: the GI50 with A498 was 16.4 µM (inactive); with COLO 205, 9.23 µM (inactive); in the assay with DU-145, 17.9 µM (inactive); in the assay on HCC 2998 it was 22.1 µM (inactive); in the assay on HOP-62 it was 38.3 µM (inactive); with Hs-578T it was 20.8 µM (inactive). For the same compound, the GI50 with MOLT-4 was 10.4 µM (inactive); in the assay with NCI-H226, > 100 µM (inactive); in the assay with NCI-H23, 20 µM (inactive); with OVCAR-4 it was 17.2 µM (inactive); in the assay with OVCAR-8 it was 12.3 µM (inactive); with PC-3, 17 µM (inactive). The GI50 is > 100 µM (inactive) with SF-295; 21.6 µM (inactive) with SK-MEL-28; 17.5 µM (inactive) with SK-MEL-5; > 100 µM (inactive) with SNB-19; 19.8 µM (inactive) in the assay on SNB-75; 15.1 µM (inactive) with UO-31.

On to `COc1ccc(OC2OC(CO)C(O)C(O)C2O)cc1` (stereo not drawn), for which the GI50 in the assay with A498, in the assay on COLO 205, with DU-145, in the assay with HCC 2998, in the assay with HOP-62 and in the assay on Hs-578T was > 100 µM (inactive) in each case. The GI50 with MOLT-4, in the assay on NCI-H226, with NCI-H23, in the assay on OVCAR-8, in the assay on PC-3 and with SF-295 was > 100 µM (inactive) each time. The GI50 with SK-MEL-28, with SK-MEL-5, with SNB-19, with SNB-75, in the assay on U-251 and with UO-31 was > 100 µM (inactive) throughout.

As for `S=C(N/N=C\C=N/NC(=S)N1CCCCC1)N1CCCCC1`, the GI50 in the assay on A498 was 1.34 µM (inactive); in the assay with COLO 205 it was 0.592 µM (active); in the assay with DU-145 it was 0.202 µM (active); in the assay on HOP-62 it was 0.203 µM (active); with HOP-92, 3.23 µM (inactive); in the assay with Hs-578T, 0.879 µM (active). In addition, the GI50 is 0.489 µM (active) in the assay on NCI-H226; 1.16 µM (inactive) with NCI-H23; 0.178 µM (active) in the assay on OVCAR-8; 0.387 µM (active) in the assay on PC-3; 0.155 µM (active) in the assay on SF-295; 0.682 µM (active) in the assay on SK-MEL-28. Moreover, the GI50 in the assay on SK-MEL-5 is 0.37 µM (active); in the assay with SNB-19 it was 0.41 µM (active); in the assay with SNB-75, 0.731 µM (active); with U-251 it was 0.207 µM (active); with UO-31, 0.195 µM (active).

Turning to `CC1(C)[N+]([O-])=[N+]([O-])C1(C)O` (stereo not drawn), the GI50 in the assay on A498, in the assay with COLO 205, in the assay on DU-145, in the assay with HCC 2998, with Hs-578T and in the assay on MOLT-4 was > 100 µM (inactive) in each case. For the same compound, the GI50 with NCI-H226, in the assay on NCI-H23, with OVCAR-4, in the assay with OVCAR-8, in the assay on PC-3 and in the assay with SK-MEL-28 was > 100 µM (inactive) in each case. The GI50 in the assay on SK-MEL-5, in the assay on SNB-19, in the assay with SNB-75, in the assay with U-251 and in the assay on UO-31 was > 100 µM (inactive) in each case.

With `O=S(=O)(c1ccccc1)c1ccc(/N=N/O)nc1`, the GI50 in the assay with A498, in the assay with COLO 205, in the assay on DU-145, in the assay with HCC 2998, with HOP-62 and in the assay on Hs-578T was > 100 µM (inactive) throughout. In addition, the GI50 in the assay with MOLT-4 is 22.4 µM (inactive); in the assay on NCI-H226, > 100 µM (inactive); in the assay on NCI-H23, > 100 µM (inactive); with OVCAR-4, > 100 µM (inactive); with OVCAR-8 it was > 100 µM (inactive); in the assay on PC-3 it was > 100 µM (inactive). The GI50 with SF-295 is > 100 µM (inactive); with SK-MEL-28, > 100 µM (inactive); with SK-MEL-5, > 10 µM (inactive); with SNB-19, > 100 µM (inactive); in the assay on SNB-75, 62.2 µM (inactive); in the assay on U-251, > 100 µM (inactive). Besides, the GI50 with UO-31 was > 100 µM (inactive).

Take `CC(=O)Oc1c2c(c3n(c1=O)CCCC3)C(=O)N(c1ccccc1)C2=O`: the GI50 in the assay on COLO 205 is > 100 µM (inactive); with DU-145 it was > 100 µM (inactive); with HCC 2998, 30.8 µM (inactive); in the assay with HOP-62, > 100 µM (inactive); in the assay with HOP-92, 40.7 µM (inactive); with Hs-578T, > 100 µM (inactive). The GI50 was > 100 µM (inactive) in the assay with MOLT-4; 60 µM (inactive) with NCI-H226; > 100 µM (inactive) with NCI-H23; 54.3 µM (inactive) in the assay with OVCAR-4; > 100 µM (inactive) with OVCAR-8; 46.5 µM (inactive) in the assay with PC-3. Also, the GI50 in the assay with SF-295 was 61 µM (inactive); in the assay with SK-MEL-28, > 100 µM (inactive); with SK-MEL-5, 53.3 µM (inactive); in the assay on SNB-19, > 100 µM (inactive); with SNB-75 it was 87.5 µM (inactive); in the assay with U-251, > 100 µM (inactive). Besides, the GI50 with UO-31 is 95.7 µM (inactive).

Turning to `CN(C)Cc1cc(C(=O)/C=C/c2ccc(Cl)cc2)cc(CN(C)C)c1O`, the GI50 with A498 is 12.7 µM (inactive); in the assay with COLO 205 it was 4.27 µM (inactive); in the assay on DU-145 it was 12.1 µM (inactive); with HCC 2998, 18.7 µM (inactive); in the assay on HOP-62 it was 4.36 µM (inactive); in the assay on Hs-578T, 17.5 µM (inactive). For the same compound, the GI50 with MOLT-4 is 16.3 µM (inactive); in the assay with NCI-H226, 22 µM (inactive); with NCI-H23, 15.7 µM (inactive); with OVCAR-8, 7.59 µM (inactive); in the assay with PC-3, 10.8 µM (inactive); in the assay with SF-295, 13.3 µM (inactive). The GI50 in the assay on SK-MEL-28 is 13.4 µM (inactive); in the assay with SK-MEL-5 it was 11.4 µM (inactive); with SNB-19, 8.75 µM (inactive); in the assay on SNB-75, 8.75 µM (inactive); in the assay with U-251, 13.4 µM (inactive); in the assay on UO-31 it was 7.4 µM (inactive).
